As usually defined, the CC50 is the concentration giving 50% cytotoxicity.

Values joined by “and” are separate entries in the source; they are usually repeats but may differ in a detail not shown here. Identical values can stand only once.

For series [1], the system named is human malignant melanoma A-375 cell line. Nature of the series: Cytotoxicity in A-375 melanoma cells (CellTiter-Glo ATP viability). The class given is cell-based. Conditions: for Primary Test Results (Cytotoxicity % at 50 µM in A-375 Cells): 48-h incubation, single experiment with three technical replicates; for CC50 / cytotoxicity at 50 µM: Homo sapiens, A-375, 48 h; for CC50: read-out: CC50 (µM) in A-375 Cells; for cytotoxicity at 50 µM: read-out: Primary Test Results (Cytotoxicity % at 50 µM in A-375 Cells), 50 µM, A-375 cells, 48-h incubation, single experiment with three technical replicates; for Selectivity Index (SI): ratio of CC50 values between Hs27 fibroblasts and A-375 melanoma cells, SD in parentheses. How it is done:
(§1) Analysis of selectivity to cancer cells. The cells were seeded to white frame and clear bottom 96-well plates (Perkin Elmer) at a density of 10,000 cells/well for the human malignant melanoma A-375 cell line (ATCC CRL-1619) and 7500 cells/well for the human skin fibroblast Hs27 cell line (ATCC CRL-1634). The cells were grown at 37 °C, 5% CO2 until they reached 70–80% confluence (approximately 24 h). Stock solutions of test compounds and a positive control (camptothecin, Sigma-Aldrich, St. Louis, MO, USA) were prepared in DMSO and diluted into the assay medium (growth medium with 5% FBS) to the final concentration. Final DMSO concentration was 0.5% in all samples. The culture medium was removed from the plate and compounds added, 200 µL/well. After a 48-h incubation, the amount of ATP, which is directly proportional to the number of viable cells present in culture, was quantified using CellTiter-Glo® Luminescent Cell Viability kit (Promega, Madison, WI, USA), according to manufacturer’s instructions. Origin Graphing and Analysis, version 9.55 (OriginLab, Northampton, MA, USA), was used for determination of CC50 values. The cancer cell selectivity index was calculated as a ratio of CC50 values between Hs27 fibroblasts and A-375 melanoma cells. Standard deviation of selectivity indices was calculated using Equation (1) (1) σ(x¯/y¯)=(σ(x)/x¯)^2+(σ(y)/y¯)^2

Series [2] in a line: Cytotoxicity in Hs27 normal skin fibroblasts (CellTiter-Glo ATP viability). The class given is cell-based. As to conditions: human, 48-h incubation, mean (SD) of 2–3 independent experiments in triplicate, read-out: CC50 (µM) in Hs27 Cells. How it is done: as §1
In general terms: In ATP-based viability assays light output follows the ATP content of the culture.

Regarding “7,9-Dibromo-8-oxo-N’-picolinoyl-1-oxa-2-azaspiro[4.5]deca-2,6,9-triene-3-carbohydrazide [Compound 39]”, the “Primary Test Results (Cytotoxicity % at 50 µM in A-375 Cells)” value in series [1] is given as 75.2%.
In the case of `N=C(N)NCCCCNC(=O)C1=NOC2(C=CC(=O)C=C2)C1` [Compound 11, N-(4-Guanidinobutyl)-8-oxo-1-oxa-2-azaspiro[4.5]deca-2,6,9-triene-3-carboxamide], the “Primary Test Results (Cytotoxicity % at 50 µM in A-375 Cells)” value in series [1] was “less than 25% and −8.2%”.
For the molecule `CN(C)C(=O)C1=NOC2(C=CC(=O)C=C2)C1` [Compound 12, N,N-Dimethyl-8-oxo-1-oxa-2-azaspiro[4.5]deca-2,6,9-triene-3-carboxamide], in series [1], the CC50 is 2.1 µM, the cytotoxicity at 50 µM was determined as 95.1% and the “Selectivity Index (SI)” value is 1.8 (0.6). The CC50 at 48 h in series [2] is 3.8 µM.
Regarding `CN(C)C(=O)C1=NOC2(C=C(Br)C(=O)C(Br)=C2)C1` [Compound 13, 7,9-Dibromo-N,N-dimethyl-8-oxo-1-oxa-2-azaspiro[4.5]deca-2,6,9-triene-3-carboxamide], in series [1], the 50% cytotoxic concentration (CC50) is 3.7 µM and the cytotoxicity at 50 µM is 99.8%. Moreover, the 50% cytotoxic concentration (CC50) at 48 h in series [2] stood at 7.2 µM.
The matching figures for `CC(C)N(C)C(=O)C1=NOC2(C=C(Br)C(=O)C(Br)=C2)C1` [Compound 14, 7,9-Dibromo-N-isopropyl-N-methyl-8-oxo-1-oxa-2-azaspiro[4.5]deca-2,6,9-triene-3-carboxamide]: 7.2 µM, 99.9% and 7.8 µM.
With `O=C1C=CC2(C=C1)CC(C(=O)N1CCOCC1)=NO2` [Compound 15, 3-(Morpholine-4-carbonyl)-1-oxa-2-azaspiro[4.5]deca-2,6,9-trien-8-one], in series [1], the CC50 was 3.8 µM, the cytotoxicity at 50 µM turned out to be 96.1% and the “Selectivity Index (SI)” value is on record as 0.7 (0.2). The 50% cytotoxic concentration (CC50) at 48 h in series [2] is 2.5 µM.
Consider `O=C1C=CC2(C=C1)CC(C(=O)N1CCC(O)CC1)=NO2` [Compound 16, 3-(4-Hydroxypiperidine-1-carbonyl)-1-oxa-2-azaspiro[4.5]deca-2,6,9-trien-8-one], for which, in series [1], the CC50 turned out to be 4.9 µM, the cytotoxicity at 50 µM is 97.1% and the “Selectivity Index (SI)” value was 1.5 (0.2). In series [2], the CC50 at 48 h came to 7.4 µM.
Take `O=C1C=CC2(C=C1)CC(C(=O)NNC(=O)CN1CCOCC1)=NO2` [Compound 17, N’-(2-Morpholinoacetyl)-8-oxo-1-oxa-2-azaspiro[4.5]deca-2,6,9-triene-3-carbohydrazide]: in series [1], the “Primary Test Results (Cytotoxicity % at 50 µM in A-375 Cells)” value amounted to 20.8% and the cytotoxicity at 50 µM is under 25%.
For the molecule `O=C1C=CC2(C=C1)CC(C(=O)Nc1cc(Cl)cc(Cl)c1)=NO2` [Compound 18, N-(3,5-Dichlorophenyl)-8-oxo-1-oxa-2-azaspiro[4.5]deca-2,6,9-triene-3-carboxamide], in series [1], the CC50 came to 0.4 µM, the cytotoxicity at 50 µM was found to be 100% and the “Selectivity Index (SI)” value was 2.0 (0.8). Moreover, in series [2], the CC50 at 48 h worked out at 0.8 µM.
Turning to `O=C(Nc1cc(Cl)cc(Cl)c1)C1=NOC2(C=C(Br)C(=O)C(Br)=C2)C1` [Compound 19, 7,9-Dibromo-N-(3,5-dichlorophenyl)-8-oxo-1-oxa-2-azaspiro[4.5]deca-2,6,9-triene-3-carboxamide], in series [1], the CC50 was 9.2 µM, the cytotoxicity at 50 µM was 94.9% and the “Selectivity Index (SI)” value is recorded as 0.7 (0.5). The cytotoxic concentration (CC50) at 48 h in series [2] turned out to be 6.8 µM.
The matching figures for `COc1ccc(NC(=O)C2=NOC3(C=CC(=O)C=C3)C2)cc1Cl` [Compound 20, N-(3-Chloro-4-methoxyphenyl)-8-oxo-1-oxa-2-azaspiro[4.5]deca-2,6,9-triene-3-carboxamide]: 1.2 µM, 100%, 1.3 (0.5) and 1.5 µM.
Turning to `COc1ccc(NC(=O)C2=NOC3(C=C(Br)C(=O)C(Br)=C3)C2)cc1Cl` [Compound 21, 7,9-Dibromo-N-(3-chloro-4-methoxyphenyl)-8-oxo-1-oxa-2-azaspiro[4.5]deca-2,6,9-triene-3-carboxamide], in series [1], the 50% cytotoxic concentration (CC50) worked out at 2.3 µM, the cytotoxicity at 50 µM came to 101% and the “Selectivity Index (SI)” value is on record as 2.2 (0.3). For the same molecule, the CC50 at 48 h in series [2] stood at 5 µM.
Consider `O=C1C=CC2(C=C1)CC(C(=O)NCCc1c[nH]c3ccccc13)=NO2` [Compound 22, N-[2-(1H-Indol-3-yl)ethyl]-8-oxo-1-oxa-2-azaspiro[4.5]deca-2,6,9-triene-3-carboxamide], for which, in series [1], the CC50 worked out at 0.7 µM, the cytotoxicity at 50 µM turned out to be 99.8% and the “Selectivity Index (SI)” value is listed as 1.0 (0.3). The CC50 at 48 h in series [2] was 0.7 µM.
For the molecule `COc1ccc(CNC(=O)C2=NOC3(C=CC(=O)C=C3)C2)cc1` [Compound 23, N-(4-Methoxybenzyl)-8-oxo-1-oxa-2-azaspiro[4.5]deca-2,6,9-triene-3-carboxamide], in series [1], the CC50 amounted to 1.2 µM, the cytotoxicity at 50 µM turned out to be 100% and the “Selectivity Index (SI)” value is given as 1.2 (0.6). Besides, the CC50 at 48 h in series [2] turned out to be 1.4 µM.
With `COc1ccc(CNC(=O)C2=NOC3(C=C(Br)C(=O)C(Br)=C3)C2)cc1` [Compound 24, 7,9-Dibromo-N-(4-methoxybenzyl)-8-oxo-1-oxa-2-azaspiro[4.5]deca-2,6,9-triene-3-carboxamide], in series [1], the CC50 was 3.5 µM, the cytotoxicity at 50 µM stood at 97.8% and the “Selectivity Index (SI)” value is recorded as 0.9 (0.3). In addition, the 50% cytotoxic concentration (CC50) at 48 h in series [2] is 3.3 µM.
For `COc1ccc(CCNC(=O)C2=NOC3(C=CC(=O)C=C3)C2)cc1` [Compound 25, N-(4-Methoxyphenethyl)-8-oxo-1-oxa-2-azaspiro[4.5]deca-2,6,9-triene-3-carboxamide] the same measures were 1.2 µM, 100%, 1.7 (0.3) and 2 µM.
As to `O=C1C=CC2(C=C1)CC(C(=O)Nc1cccnc1)=NO2` [Compound 26, 8-Oxo-N-(pyridin-3-yl)-1-oxa-2-azaspiro[4.5]deca-2,6,9-triene-3-carboxamide], in series [1], the half-maximal cytotoxic concentration (CC50) amounted to 2 µM, the cytotoxicity at 50 µM was determined as 99.2% and the “Selectivity Index (SI)” value is reported as 1.0 (0.8). Besides, in series [2], the CC50 at 48 h was found to be 1.9 µM.
In the case of `O=C(Nc1cccnc1)C1=NOC2(C=C(Br)C(=O)C(Br)=C2)C1` [Compound 27, 7,9-Dibromo-8-oxo-N-(pyridin-3-yl)-1-oxa-2-azaspiro[4.5]deca-2,6,9-triene-3-carboxamide], in series [1], the CC50 stood at 3 µM, the cytotoxicity at 50 µM worked out at 101% and the “Selectivity Index (SI)” value is listed as 2.2 (0.5). Further, the CC50 at 48 h in series [2] stood at 6.6 µM.
Turning to `O=C1C=CC2(C=C1)CC(C(=O)Nc1ccccn1)=NO2` [Compound 28, 8-Oxo-N-(pyridin-2-yl)-1-oxa-2-azaspiro[4.5]deca-2,6,9-triene-3-carboxamide], in series [1], the CC50 was determined as 1.9 µM, the cytotoxicity at 50 µM is 99.6% and the “Selectivity Index (SI)” value is listed as 0.8 (0.4). For the same molecule, the half-maximal cytotoxic concentration (CC50) at 48 h in series [2] was determined as 1.5 µM.
Turning to `O=C(Nc1ccccn1)C1=NOC2(C=C(Br)C(=O)C(Br)=C2)C1` [Compound 29, 7,9-Dibromo-8-oxo-N-(pyridin-2-yl)-1-oxa-2-azaspiro[4.5]deca-2,6,9-triene-3-carboxamide], in series [1], the half-maximal cytotoxic concentration (CC50) was 2.4 µM, the cytotoxicity at 50 µM turned out to be 101% and the “Selectivity Index (SI)” value was 2.4 (0.4). The CC50 at 48 h in series [2] was 5.8 µM.
As for `O=C(Nc1ccc(C(F)(F)F)cn1)C1=NOC2(C=C(Br)C(=O)C(Br)=C2)C1` [Compound 30, 7,9-Dibromo-8-oxo-N-[5-(trifluoromethyl)pyridin-2-yl]-1-oxa-2-azaspiro[4.5]-deca-2,6,9-triene-3-carboxamide], in series [1], the CC50 amounted to 3.6 µM, the cytotoxicity at 50 µM amounted to 98.1% and the “Selectivity Index (SI)” value is on record as 0.6 (0.2). Besides, in series [2], the CC50 at 48 h is 2.3 µM.
Regarding `O=C(Nc1ccc(C(F)(F)F)nc1)C1=NOC2(C=C(Br)C(=O)C(Br)=C2)C1` [Compound 31, 7,9-Dibromo-8-oxo-N-[6-(trifluoromethyl)pyridin-3-yl]-1-oxa-2-azaspiro[4.5] deca-2,6,9-triene-3-carboxamide], in series [1], the CC50 was 5.3 µM, the cytotoxicity at 50 µM worked out at 98.6% and the “Selectivity Index (SI)” value is given as 0.4 (0.1). Moreover, the CC50 at 48 h in series [2] turned out to be 2.1 µM.
Regarding `O=C1C=CC2(C=C1)CC(C(=O)NCCc1ccccn1)=NO2` [Compound 32, 8-Oxo-N-[2-(pyridin-2-yl)ethyl]-1-oxa-2-azaspiro[4.5]deca-2,6,9-triene-3-carboxamide], in series [1], the CC50 turned out to be 1.5 µM, the cytotoxicity at 50 µM stood at 97.5% and the “Selectivity Index (SI)” value is listed as 1.5 (0.9). Further, the CC50 at 48 h in series [2] amounted to 2.2 µM.

Values taken from publication PMC8305101, “Synthesis and Cytotoxicity Evaluation of Spirocyclic Bromotyrosine Clavatadine C Analogs” (Marine Drugs, 2021).
